Experimental findings from patent US20250197368A1 (priority 2020, published 2025) are described below.

Structures are written as SMILES.

This experiment concerns human α2β3γ2 GABAARs. The experiment can be described thus: In vitro electrophysiological recording assay (automated patch-clamp), α2-GABAAR relative efficacy. Particulars: % efficacy normalised to diazepam; GABA EC10-20; concentration generally >= 100 times Ki. The format is cell-based. The gist of the method: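 Relative efficacy is % enhancement of the leak-subtracted GABA EC10-20 peak current, divided by the separately measured diazepam value; compound generally tested at ≥100× Ki after ≥1 min pre-application. Recordings at room temperature, human receptors stably expressed in L(tk^−) (QPatch, −65 mV) or HEK293 (SyncroPatch, −80 mV) cells.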
In general terms: The patch-clamp technique gives a direct electrical read-out from membranes.
With `CCCNC(=O)c1c(N)c2cccc(-c3nc(C)ncc3F)c2[nH]c1=O` [Example 40, 4-Amino-8-(5-fluoro-2-methyl-pyrimidin-4-yl)-2-oxo-N-propyl-1H-quinoline-3-carboxamide], the “α2-GABAAR Relative Efficacy (vs. Diazepam)” value is 0.29.
Next, `CCCNC(=O)c1c(N)c2cccc(-c3cnc(C)cc3OC)c2[nH]c1=O` [Example 18, 4-Amino-8-(4-methoxy-6-methyl-3-pyridyl)-2-oxo-N-propyl-1H-quinoline-3-carboxamide]: 0.29; `CCCNC(=O)c1c(N)c2cccc(-c3cnccc3OC)c2[nH]c1=O` [Example 17, 4-Amino-8-(4-methoxy-3-pyridyl)-2-oxo-N-propyl-1H-quinoline-3-carboxamide]: 0.33.
